Experiment [1] has as its target T1, Thromboxane A2 (TXA2) receptor (Oryctolagus cuniculus, UniProt Q6WQI8).
T1 construct: contraction by TXA2 mimics U-44069 or U-46619
T1 sequence (Q6WQI8 1-233): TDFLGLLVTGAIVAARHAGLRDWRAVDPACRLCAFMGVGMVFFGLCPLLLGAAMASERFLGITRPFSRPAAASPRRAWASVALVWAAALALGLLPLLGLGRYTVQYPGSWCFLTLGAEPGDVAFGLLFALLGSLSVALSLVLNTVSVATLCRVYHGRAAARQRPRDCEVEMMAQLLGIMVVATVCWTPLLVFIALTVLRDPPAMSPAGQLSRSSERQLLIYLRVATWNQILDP
Nature of the experiment: Thromboxane A2 (TXA2) receptor antagonism: inhibitory effect on contraction of rabbit aorta by TXA2-mimics. The format is cell-based. To be noted: for inhibition at 1 µM: 10^-6 M; for inhibition at 0.1 µM: 10^-7 M. The method, then: Thromboxane A2 (TXA2) receptor antagonism
Inhibitory effect on contraction of rabbit aorta by thromboxan A2 (TXA2)-mimics
Method: A spiral strip of the rabbit aorta (2-3 mm wide, about 3 cm long) was suspended in Krebs-Henseleit solution under the load of 2 g. The Krebs-Henseleit solution was saturated with a mixed gas of 95%O2 -5%CO2 and warmed at 37° C. Inhibition of the contraction of the vascular strip caused by a TXA2 mimic substance U-44069^1) (10^-7 M) or U-46619^2) (3×10 ^-8 M), by pretreatment with Compound No. 13 30 minutes before was studied.
1) U-44069: (5Z, 9α, 11α, 13E, 15S)-15-hydroxy-9,11-(epoxymethano)-prosta-5,13-dienoic acid (manufacturedby The Upjohn Company in U.S.A.)
2) U-46619: (5Z, 9α, 11α, […], 15S)-15-hydroxy-11,9-(epoxymethano)-prosta-5,13-dienoic acid (manufacturedby Cayman Chemical Company)
In Table 5, "*" represents addition of U-46619.

Experiment [2] addresses T2, specific [^3 H] U-46619 binding to guinea pig platelet membrane (Cavia porcellus, UniProt A0A286Y4I8).
T2 construct: Platelet membranes were prepared according to the following procedure; from tissue; host or cells: guinea pig platelet membranes
T2 sequence (A0A286Y4I8 1-347): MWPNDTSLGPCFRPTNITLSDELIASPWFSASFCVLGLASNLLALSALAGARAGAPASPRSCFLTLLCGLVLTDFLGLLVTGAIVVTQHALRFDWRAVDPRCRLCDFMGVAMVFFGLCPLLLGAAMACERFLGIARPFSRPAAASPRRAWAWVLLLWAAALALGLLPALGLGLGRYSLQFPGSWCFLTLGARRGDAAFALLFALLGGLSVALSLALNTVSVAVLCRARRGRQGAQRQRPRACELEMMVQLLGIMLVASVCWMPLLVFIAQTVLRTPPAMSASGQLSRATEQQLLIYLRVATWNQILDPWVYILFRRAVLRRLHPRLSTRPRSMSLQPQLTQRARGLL
Nature of the experiment: Inhibition of specific [^3 H] U-46619 binding to guinea pig platelet membrane. To be noted: [^3 H] U-46619, 25° C., 30 min; read-out: IC50 (Concentration for 50% inhibition). How it is done: Inhibition of specific [^3 H] U-46619 binding to guinea pig platelet membrane
Method: Blood from normal guinea pig was collected into 0.315% citrate solution containing aspirin (final concentration 1 mM) and was centrifuged at 3000 r.p.m. for […]. The PRP (platelet rich plasma) was centrifuged at 4800 r.p.m for 10 min. at 4° C. Platelet membranes were prepared according to the following procedure: In order to remove the residual plasma protein, the platelet pellet was washed once with 30 ml of buffer containing 25 mM Tris-HCl/5 mM MgCl2 (pH 7.4) and recentrifuged to pellet the platelets. The platelets were then resuspended in 20 ml of the same buffer, and the cells were disrupted by sonication. The sonication was performed on ice using a Kontes Sonicator (Vineland, N.J.). The platelets were sonicated for a total of 90 sec. with a 15 sec. burst followed by a 15 sec. intermission. The sonicated mixture was centrifuged at 100,000×g for 1 hour and the membrane fraction was suspended in the same buffer. The protein concentration was adjusted to 1 mg/ml.
The binding assay was performed at 25° C. for 30 min. One ml of the resuspended membrane fraction was incubated with […] of [^3 H] U-46619. The incubation mixture was filtered through a glass fiber membrane (GF/C, whatman) to separate the membrane bound from free [^3 H] U-46619. The membranes were quickly washed twice with 5 ml of cold buffer, mixed with 4 ml of ACS scintillation fluid and counted for [^3 H] U-46619.

Experiment [3] deals with U-46619 (TXA2 mimic)-induced broncho-constriction. Nature of the experiment: Inhibitory effect on U-46619 (TXA2 mimic)-induced broncho-constriction in guinea pig. The format is in vivo. The note with it: Cavia porcellus, ** p < 0.01; for inhibition in vivo at 5 mg/kg: 5 mg/kg p.o.; for inhibition in vivo at 0.31 mg/kg: 0.31 mg/kg p.o. How it is done: Inhibitory effect on U-46619 (TXA2 mimic)-induced broncho-constrictionin guinea pig
Method: Eight male Hartley guinea pigs were used per one group. The guinea pig anesthetized with urethane (1.5 g/kg, i.p.) was fixed in a dorsal position, subjected to tracheotomy and connected to a respirator through a cannula. A side branch of the tracheal cannula was connected to a respirator (Harvard apparatus rodent respirator Type 680) at the rate of 70 strokes/min. and a constant volume of 3 to 5 ml.
Inflation pressure was kept constant at 10 cm H2 O.
After treatment with gallamine triethiodide (1 mg/kg, i.v.), U-46619 (10 μg/Kg) dissolved in a physiological saline solution was given through a carotid cannula and the airway resistance was measured by the overflow technique of Konzett-Rossler method (Konzett, H. and Rossler, R., Naunyn-Schmiedegerg's Arch, Exp. Path. Pharmak., 195, 71-74 (1940). A test compound was suspended in 5% gum arabic solution and was administered orally 1 hour before the treatment with U-46619.
Alternatively, a test compound was dissolved in aqueous 50% dimethylsulfoxide solution and administered interveneously in the dosage of 0.1 ml/100 g body weight 9 minutes before the treatment of U-46619.

Setting [4] is: U-44069 (10^-7 M)-induced contraction.
Where [5] appears, read: iv, 1.25 mg/kg i.v., 9 minutes before U-46619.
The mark [6] stands for this setting: addition of U-46619 (3×10^-8 M) (*).

Each structure is given as a SMILES string.

By inhibition is commonly meant how much of the control response was suppressed. A higher inhibition goes with a response far below the control. For orientation: inhibition in vivo means how much of the control response was suppressed. Read a high inhibition in vivo as a strong effect. In the case of `Cc1c(C)c(Cl)c(C)c(C(CCCCCC(=O)O)c2ccc(F)cc2)c1O` (stereo not drawn) [Compound 17], in experiment [1] (setting [4]), testing at 1 µM gave an inhibition of 98% and the inhibition at 0.1 µM amounted to 12%. Moreover, the IC50 in experiment [2] was determined as 0.84 µM. Also, in experiment [3] (setting [5]), the inhibition in vivo at 1.25 mg/kg is 71%.

For the compound `Cc1c(C)c(Cc2ccccc2)c(C)c(C(CCCCCC(=O)O)c2ccc(F)cc2)c1O` (stereo not drawn) [Compound 19], the IC50 in experiment [2] worked out at 0.16 µM.

In turn, `Cc1c(C)c2c(c(C(CCCCCC(=O)O)c3ccc(F)cc3)c1O)CCC2` (stereo not drawn) [Compound 22] yielded an inhibition at 10 µM in experiment [1] (10^-5 M, U-44069 (10^-7 M)-induced contraction) of 100%. Also, at 1 µM the inhibition in experiment [1] (setting [4]) was 45%. The IC50 in experiment [2] worked out at 0.16 µM. This compound displayed an inhibition in vivo at 1.25 mg/kg in experiment [3] (setting [5]) of 43%. This compound gave an inhibition in vivo at 5 mg/kg in experiment [3] (po, 1 hour before U-46619) of 83%.

Consider `Cc1c(C)c(CO)c(C)c(C(CCCCCC(=O)O)c2ccc(F)cc2)c1O` (stereo not drawn) [Compound 32, 7-(4-fluorophenyl)-7-(6-hydroxy-3-hydroxymethyl-2,4,5-trimethylphenyl)heptanoic acid], for which, in experiment [1] (setting [6]), the inhibition at 1 µM was determined as 100% and at 0.1 µM the inhibition was 95%. Besides, in experiment [2], the IC50 came to 0.032 µM. The inhibition in vivo at 0.31 mg/kg in experiment [3] (po, 1 hour before U-46619) is 57%.

Take `CC(=O)c1c(C)c(C)c(O)c(C(CCCCCC(=O)O)c2ccc(F)cc2)c1C` (stereo not drawn) [Compound 35, 7-(3-acetyl-6-hydroxy-2,4,5-trimethylphenyl)-7-(4-fluorophenyl)heptanoic acid]: in experiment [1] (setting [6]), at 1 µM the inhibition was 98% and the inhibition at 0.1 µM was 23%. In addition, the IC50 in experiment [2] came out at 0.08 µM. The inhibition in vivo at 5 mg/kg in experiment [3] (po, 1 hour before U-46619) is 76%.

`Cc1c(C)c2c(c(C(CCCCCC(=O)O)c3ccc(F)cc3)c1O)CCC2=O` (stereo not drawn) [Compound 37, 7-(6,7-dimethyl-5-hydroxy-1-oxoindan-4-yl)-7-(4-fluorophenyl)heptanoic acid] had an inhibition at 0.1 µM in experiment [1] (setting [6]) of 100%. The IC50 in experiment [2] is 0.013 µM. The same compound registered an inhibition in vivo at 1.25 mg/kg in experiment [3] (po, 1.25 mg/kg p.o., 1 hour before U-46619) of 59%.

In the case of `C=CCON=Cc1c(C)c(C)c(O)c(C(CCCCCC(=O)O)c2ccc(F)cc2)c1C` (stereo not drawn) [Compound 52], the inhibition at 0.1 µM in experiment [1] (setting [6]) amounted to 96%. The IC50 in experiment [2] amounted to 0.014 µM. The compound further registered an inhibition in vivo at 0.31 mg/kg in experiment [3] (po, 1 hour before U-46619) of 36%.

(Values after patent publication US5162571A, “Phenol derivatives, their production and use” (Takeda Chemical Industries, Ltd., priority 1987, dated 1992).)
